This is an account of results in patent US20220023306A1, “USE OF A PPAR-DELTA AGONIST IN THE TREATMENT OF FATTY ACID OXIDATION DISORDERS (FAOD)” (Reneo Pharmaceuticals, Inc., priority 2019, published 2022).

The target in one data set is T1, LXRα (Homo sapiens, UniProt Q13133).
T1 sequence (Q13133 1-447): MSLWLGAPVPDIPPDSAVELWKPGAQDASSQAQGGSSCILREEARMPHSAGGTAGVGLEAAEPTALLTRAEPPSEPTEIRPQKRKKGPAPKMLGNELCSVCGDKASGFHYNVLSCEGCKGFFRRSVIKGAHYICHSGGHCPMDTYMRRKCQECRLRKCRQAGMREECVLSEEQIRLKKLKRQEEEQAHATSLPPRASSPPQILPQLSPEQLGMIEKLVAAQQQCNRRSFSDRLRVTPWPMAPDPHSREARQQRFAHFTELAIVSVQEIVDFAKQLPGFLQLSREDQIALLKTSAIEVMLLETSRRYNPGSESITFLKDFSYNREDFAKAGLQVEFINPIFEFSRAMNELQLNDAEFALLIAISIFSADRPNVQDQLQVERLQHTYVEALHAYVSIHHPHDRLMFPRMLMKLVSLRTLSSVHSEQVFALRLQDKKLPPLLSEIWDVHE
Description: activity on nuclear receptor LXRα. The data set is classed as cell-based.

In the next data set the test system is subjects with FAOD. Put plainly: FAOD clinical trial with Compound 1. The class given is in vivo, human. How it is done: In some embodiments, outcome measures are assessed with tests that assess exercise tolerance. In some embodiments, exercise tolerance is assessed with exercise tests. Exercise tests include, but are not limited to, submaximal treadmill, walking tests (e.g. without limitation, 6 minute; 12 minute walks), run tests, treadmill and ergometry exercise testing. In some embodiments, exercise tests are used in combination with the Borg Scale of perceived exertion. In some embodiments, exercise tests are performed according to guidelines set forth by the American Thoracic Society (ATS).
In some embodiments, stable isotope methods are used to measure in vivo residual fatty acid oxidation capacity. Enrichment of ^13CO2 only occurs by one complete round of fatty acid oxidation. A representative protocol is as follows. A fasting blood sample is obtained after an overnight fast. Prior to breakfast, a resting indirect calorimetry is measured. Subjects are then given a meal (e.g a shake) containing 17-mg/kg ^13C-oleic acid. Breath samples are collected prior to (time 0) and again hourly at 1, 2, 3, 4, 5, 6, 7, and 8 hours following the ^13C-oleic administration. ^13C in breath samples are measured as a ratio of ^13C/^12C using the Delta Plus IRMS (Finnigan MAT, Bremen, Germany). Recovery is calculated as ^13C divided by the dose of ^13C administered. The amount of excess ^13C in breath is a measure of residual fatty acid oxidation capacity in subjects with disorders of long-chain fatty acid oxidation.
In some embodiments, improvements in fatty acid oxidation in subjects with a FAOD that are treated with a PPARδ agonist compound described herein (e.g. Compound 1, or a pharmaceutically acceptable salt thereof) are measured with a suitable ^13CO2 breath sample test. In some embodiments, a suitable ^13CO2 breath sample test comprises the steps of: 1) providing the subject a meal comprising ^13C-enriched fatty acid(s); 2) administering to the subject a PPARδ agonist compound, or a pharmaceutically acceptable salt thereof, after the consumption of the meal; and 3) collecting breath samples from the subject at regular intervals and measuring the relative amount of ^13CO2 to ^12CO2 in the breath samples. In some embodiments, the breath samples are collected about every hour. In some embodiments, the meal is enriched with a 13C labeled fatty acid, wherein the fatty acid is butyric acid, caproic acid, caprylic acid, capric acid, lauric acid, myristic acid, palmitic acid, stearic acid, arachidic acid, behenic acid, lignoceric acid, caproleic acid, lauroleic acid, myristoleic acid, palmitoleic acid, oleic acid, elaidic acid, vaccenic acid, gadoleic acid, erucic acid, brassidic acid, nervonic acid, linoleic acid, alpha-linolenic acid, gamma-linolenic acid, columbinic acid, stearidonic acid, mead acid, dihomo-γ-linolenic acid, arachidonic acid, eicosapentaenoic acid, docosapentaenoic acid, or docosahexaenoic acid.
A non-limiting example of a fatty acid oxidation disorder (FAOD) clinical trial in humans is described below. […]

A further data set concerns the target T2, LXRβ (Homo sapiens, UniProt P55055).
T2 sequence (P55055 1-460): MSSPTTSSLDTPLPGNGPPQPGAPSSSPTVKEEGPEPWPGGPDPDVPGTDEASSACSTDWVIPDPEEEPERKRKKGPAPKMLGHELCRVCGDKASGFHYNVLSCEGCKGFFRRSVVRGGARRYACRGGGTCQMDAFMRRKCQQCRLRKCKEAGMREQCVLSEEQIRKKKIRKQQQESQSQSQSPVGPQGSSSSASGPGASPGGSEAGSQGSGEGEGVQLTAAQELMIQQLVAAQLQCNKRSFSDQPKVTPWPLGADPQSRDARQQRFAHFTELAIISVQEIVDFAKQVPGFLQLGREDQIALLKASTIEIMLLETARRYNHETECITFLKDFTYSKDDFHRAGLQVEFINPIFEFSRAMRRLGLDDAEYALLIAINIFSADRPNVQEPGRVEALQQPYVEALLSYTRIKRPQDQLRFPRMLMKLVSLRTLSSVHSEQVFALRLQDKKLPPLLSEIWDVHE
Description: activity on nuclear receptor LXRβ. The class given is cell-based.

The structures appear in SMILES notation.

As for `Cc1cc(OC/C=C(/c2ccc(F)cc2)c2ccc(C#CCN3CCOCC3)cc2)ccc1OCC(=O)O` [Compound 1, (E)-[4-[3-(4-Fluorophenyl)-3-[4-[3-(morpholin-4-yl)propynyl]phenyl]allyloxy]-2-methyl-phenoxy]acetic acid], at LXRα, the “activity on LXRα” value is “did not show any”. For the same compound, in the data set on subjects with FAOD (50 mg once daily for 12 weeks), the exercise capacity result is reported as “Improvements”, the “exhaled 13CO2” value is reported as “trend towards increases” and the “heart rate during the last ten minutes of exercise” value is listed as “decreases”. Also, in the data set with subjects with FAOD (50 mg once daily for 12 weeks, FIG. 1), the “distance walked during a 12-minute walk test” value is recorded as “increase”. Moreover, in the data set on subjects with FAOD (subjects that participated in the study), the tolerability entry is “well tolerated”. Besides, the “activity on LXRβ” value at LXRβ is reported as “did not show any”.
